In patent publication US20250304551A1 (SHANGHAI APEIRON THERAPEUTICS COMPANY LIMITED, priority 2022, published 2025):

What was measured:
[1] = target: T1, Human KIF18A (amino acid sequence 1-417) (Homo sapiens, UniProt Q8NI77); test: Enzyme activity detection experiment (ADP-Glo, KIF18A with tubulin and ATP); format: biochemical; conditions: tubulin 60 μg/mL, ATP 25 μM, KIF18A protein 2.5 nM, 120 minutes at ambient temperature, ADP-Glo chemiluminescence
T1 construct: purchased Viva Biotech (Shanghai) Ltd
Experimental: Materials: Human KIF18A (amino acid sequence 1-417) was obtained from Viva Biotech (Shanghai) Ltd., and the ADP-Glo™ protein kinase kit was acquired from Promega, USA. Tubulin was sourced from Cytoskeleton, USA, while a 384-well assay plate and the Envision multifunctional microplate reader were obtained from PerkinElmer, USA.
Enzyme activity detection: The compound powder in DMSO was firstly dissolved to prepare a 10 mM stock solution. Next, gradient dilutions were prepared in the microplate to achieve final concentrations of […]. Sequentially, 2.5 μL of tubulin (60 μg/mL), the compound, ATP (25 μM), and KIF18A protein (2.5 nM) were added to each well, and the reaction was incubated at ambient temperature for 120 minutes. After the reaction, 10 μL of ADP-Glo™ reagent was added to each well and incubated at ambient temperature for 30 minutes. Subsequently, 20 μL of detection reagent was added to each well and incubated for an additional 30 minutes in the dark. Finally, chemiluminescence detection was performed using the PerkinElmer Envision multifunctional microplate reader.

OVCAR3 cells = test: Cell proliferation activity test, OVCAR3 (CyQUANT Direct); format: cell-based; conditions: Homo sapiens, OVCAR-3, 72 h, 3 days incubation, CyQUANT fluorescence detection, read-out: OVCAR-3 Cell Viability_IC50_nM
Experimental: Materials and Cells: OVCAR3 cells were purchased from Nanjing Cobioer Biosciences Co., Ltd. RPMI-1640 medium, fetal bovine serum, and the CyQUANT Direct Cell Proliferation Assay kit were purchased from Thermo Fisher Scientific, USA; 96-well cell culture plates were sourced from Corning, USA.
Cell Culture: Culture OVCAR3 cells with RPMI-1640 medium containing […] and incubate them in a […] incubator at 37° C. Only cells in the logarithmic growth phase can be used for the test.
Inoculate OVCAR3 cells into a 96-well cell culture plate at 90 μL per well and incubate overnight in a […] incubator at 37° C. Dissolve the compound powder in DMSO to prepare a stock solution of 10 mM. Then perform gradient dilution for the compounds in the microplate to achieve a final concentration of 0-10 μM. Add 10 μL of cell culture medium containing compounds to each well to make the final DMSO content 0.20%. Incubate the cell plates in a […] incubator at 37° C. for 3 days. Add 100 μL of CyQUANT detection reagent to each well, react at 37° C. for 60 min, and perform fluorescence detection using the PerkinElmer Envision.

HT29 cells = test: CyQuant cell proliferation activity test, HT29; format: cell-based; conditions: Homo sapiens, HT-29, 72 h, HT29 2000 cells per well, 3 days incubation, initial concentration 3000 nM, IC50 by XLFIT, read-out: HT-29 Cell Viability_IC50_nM
Experimental: Materials and Cells: HT29 cells were purchased from Nanjing Cobioer Biosciences Co., Ltd.; RPM-1640 medium, fetal bovine serum, Trypsin-EDTA (0.25%), DMSO, 96-well plates, and CyQuant reagents were purchased from ThermoFisher (USA).
Cell Culture: Culture HT29 cells with RPMI-1640 containing 10% fetal bovine serum under the condition of 37° C. and 5% CO2. Only cells in the logarithmic growth phase can be used for the test.
Cell Proliferation Activity Test: Use the CyQuant reagent to detect the proliferation inhibitory activity of compounds on HT29 cells. Adjust the cell density and inoculate 100 μL per well into the 96-well plate (HT29 at 2000 cells per well), then incubate overnight under the condition of 37° C. and […]. Add compounds of various target concentrations (initial concentration of 3000 nM, 3-fold dilution, 9 concentration gradients), and make the DMSO content 0.20%. Incubate the cell plates at 37° C. and 5% CO2 for 3 days. Incubate with CyQuant reagent for 1 h, read the plate by Envision, and calculate IC50 using XLFIT.

T1 sequence (Q8NI77 1-417): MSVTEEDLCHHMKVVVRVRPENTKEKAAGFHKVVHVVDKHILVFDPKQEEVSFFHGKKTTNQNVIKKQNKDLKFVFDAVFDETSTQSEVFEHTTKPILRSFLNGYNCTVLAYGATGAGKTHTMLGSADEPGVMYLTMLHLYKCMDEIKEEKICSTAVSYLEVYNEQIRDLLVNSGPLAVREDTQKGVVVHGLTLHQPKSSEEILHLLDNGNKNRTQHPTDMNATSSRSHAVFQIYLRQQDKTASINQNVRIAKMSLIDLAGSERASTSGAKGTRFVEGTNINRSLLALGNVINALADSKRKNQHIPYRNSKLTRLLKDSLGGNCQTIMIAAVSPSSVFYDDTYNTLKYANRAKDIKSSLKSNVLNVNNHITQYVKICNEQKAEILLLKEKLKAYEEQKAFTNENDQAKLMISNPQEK
T1 sequence (Q2XVP4 whole entry partner): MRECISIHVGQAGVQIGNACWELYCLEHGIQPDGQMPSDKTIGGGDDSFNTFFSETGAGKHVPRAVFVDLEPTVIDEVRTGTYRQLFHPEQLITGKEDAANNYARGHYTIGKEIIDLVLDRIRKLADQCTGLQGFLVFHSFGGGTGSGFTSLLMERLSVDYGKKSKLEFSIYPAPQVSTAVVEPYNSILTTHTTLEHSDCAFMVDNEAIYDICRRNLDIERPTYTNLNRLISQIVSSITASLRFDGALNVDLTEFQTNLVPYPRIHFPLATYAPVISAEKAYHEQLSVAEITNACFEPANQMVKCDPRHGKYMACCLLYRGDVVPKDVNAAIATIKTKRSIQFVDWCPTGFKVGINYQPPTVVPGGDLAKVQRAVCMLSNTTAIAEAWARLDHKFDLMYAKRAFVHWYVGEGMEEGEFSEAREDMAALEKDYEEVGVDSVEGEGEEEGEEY
T1 sequence (P02554 whole entry partner): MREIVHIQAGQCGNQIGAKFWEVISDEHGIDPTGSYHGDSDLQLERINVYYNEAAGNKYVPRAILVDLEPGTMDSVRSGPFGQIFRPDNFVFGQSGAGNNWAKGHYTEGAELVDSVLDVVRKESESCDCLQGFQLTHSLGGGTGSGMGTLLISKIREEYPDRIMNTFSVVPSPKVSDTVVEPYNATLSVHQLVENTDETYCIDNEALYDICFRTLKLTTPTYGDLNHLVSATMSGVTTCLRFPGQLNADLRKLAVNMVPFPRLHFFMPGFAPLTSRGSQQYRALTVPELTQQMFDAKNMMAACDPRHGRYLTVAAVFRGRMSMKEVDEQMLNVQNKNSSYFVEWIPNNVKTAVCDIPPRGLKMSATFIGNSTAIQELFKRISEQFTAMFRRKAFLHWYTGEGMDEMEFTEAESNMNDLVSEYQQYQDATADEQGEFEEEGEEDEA

| Structure (SMILES) | IC50 [1] [nM] | IC50 (OVCAR3 cells) [nM] | IC50 (HT29 cells) [nM] |
| --- | --- | --- | --- |
| COc1cc(-c2nnc(-c3ccc(NS(=O)(=O)CCO)cc3N3CCC4(CC3)CC4)o2)cc(N2CCC(F)(F)CC2)n1 [Example 22, N-(4-(5-(2-(4,4-difluoropiperidin-1-yl)-6-methoxypyridin-4-yl)-1,3,4-oxadiazol-2-yl)-3-(6-azaspiro[2.5]octan-6-yl)phenyl)-2-hydroxyethane-1-sulfonamide] | 46 | 34 | 23 |
| Cc1cc(-c2nnc(-c3ccc(NS(=O)(=O)CCO)cc3N3CCC4(CC3)CC4)o2)cc(N2CCC(F)(F)CC2)n1 [Example 24, N-(4-(5-(2-(4,4-difluoropiperidin-1-yl)-6-methylpyridin-4-yl)-1,3,4-oxadiazol-2-yl)-3-(6-azaspiro[2.5]octan-6-yl)phenyl)-2-hydroxyethane-1-sulfonamide] | 51 | 16 | 20 |
| Cc1cc(N2CCC(F)(F)CC2)nc(-c2nnc(-c3ccc(NS(=O)(=O)CCO)cc3N3CCC4(CC3)CC4)o2)c1Cl [Example 26, N-(4-(5-(3-chloro-6-(4,4-difluoropiperidin-1-yl)-4-methylpyridin-2-yl)-1,3,4-oxadiazol-2-yl)-3-(6-azaspiro[2.5]octan-6-yl)phenyl)-2-hydroxyethane-1-sulfonamide] | 287 | 767 | 1270 |
| Cc1cc(N2CCC(F)(F)CC2)nc(-c2nnc(-c3ccc(NS(=O)(=O)CCO)cc3N3CCC4(CC3)CC4)o2)n1 [Example 27, N-(4-(5-(4-(4,4-difluoropiperidin-1-yl)-6-methylpyrimidin-2-yl)-1,3,4-oxadiazol-2-yl)-3-(6-azaspiro[2.5]octan-6-yl)phenyl)-2-hydroxyethanesulfonamide] | 124 | 875 | 24600 |
| Cc1cc(-c2nnc(-c3ccc(N4CCCS4(=O)=O)cc3N3CCC4(CC3)CC4)o2)nc(N2CCC(F)(F)CC2)n1 [Example 28, 2-(4-(5-(2-(4,4-difluoropiperidin-1-yl)-6-methylpyrimidin-4-yl)-1,3,4-oxadiazol-2-yl)-3-(6-azaspiro[2.5]octan-6-yl)phenyl)isothiazolidine 1,1-dioxide] | 293 | 118 | 192 |
| Cc1cc(-c2cn(-c3ccc(NS(=O)(=O)CCO)cc3N3CCC4(CC3)CC4)nn2)nc(N2CCC(F)(F)CC2)n1 [Example 34, N-(4-(4-(2-(4,4-difluoropiperidin-1-yl)-6-methylpyrimidin-4-yl)-1H-1,2,3-triazol-1-yl)-3-(6-azaspiro[2.5]octan-6-yl)phenyl)-2-hydroxyethanesulfonamide] | 56 | 12 | 15 |
| Cc1cc(-c2cn(-c3ccc(NS(=O)(=O)CCO)cc3N3CCC4(CC3)CC4)nn2)nc(C2=CCOCC2)n1 [Example 35, N-(4-(4-(2-(3,6-dihydro-2H-pyran-4-yl)-6-methylpyrimidin-4-yl)-1H-1,2,3-triazol-1-yl)-3-(6-azaspiro[2.5]octan-6-yl)phenyl)-2-hydroxyethane-1-sulfonamide] | 42 | 23 | 21 |
| Cc1cc(-c2cn(-c3ccc(NS(=O)(=O)CCO)cc3N3CCC4(CC3)CC4)nn2)nc(C2CCOCC2)n1 [Example 36, 2-hydroxy-N-(4-(4-(6-methyl-2-(tetrahydro-2H-pyran-4-yl)pyrimidin-4-yl)-1H-1,2,3-triazol-1-yl)-3-(6-azaspiro[2.5]octan-6-yl)phenyl)ethane-1-sulfonamide] | 50 | 30 | 39 |
| Cc1cc(-c2cn(-c3ccc(NS(=O)(=O)CCO)cc3N3CCC4(CC3)CC4)nn2)nc(C2=CCC(F)(F)CC2)n1 [Example 37, N-(4-(4-(2-(4,4-difluorocyclohex-1-en-1-yl)-6-methylpyrimidin-4-yl)-1H-1,2,3-triazol-1-yl)-3-(6-azaspiro[2.5]octan-6-yl)phenyl)-2-hydroxyethane-1-sulfonamide] | 253 | 87 | 161 |
| Cc1cc(-c2cn(-c3ccc(NS(=O)(=O)CCO)cc3N3CCC4(CC3)CC4)nn2)cc(-c2cnn(C)c2)n1 [Example 39, 2-hydroxy-N-(4-(4-(2-methyl-6-(1-methyl-1H-pyrazol-4-yl)pyridin-4-yl)-1H-1,2,3-triazol-1-yl)-3-(6-azaspiro[2.5]octan-6-yl)phenyl)ethane-1-sulfonamide] | 414 | 1330 | 1570 |

The next lines start with the values.

| IC50 [1] [nM] | IC50 (OVCAR3 cells) [nM] | IC50 (HT29 cells) [nM] | Structure (SMILES) |
| --- | --- | --- | --- |
| 67 | 1620 | > 3000 | O=S(=O)(CCO)Nc1ccc(-c2nnc(-c3cc(O)nc(N4CCC(F)(F)CC4)n3)o2)c(N2CCC3(CC2)CC3)c1 [Example 21, N-(4-(5-(2-(4,4-difluoropiperidin-1-yl)-6-hydroxypyrimidin-4-yl)-1,3,4-oxadiazol-2-yl)-3-(6-azaspiro[2.5]octan-6-yl)phenyl)-2-hydroxyethane-1-sulfonamide] |
| 153 | 115 | 118 | Cc1cc(-c2nnc(-c3ccc(NS(=O)(=O)CCO)cc3N3CCC4(CC3)CC4)o2)c(F)c(N2CCC(F)(F)CC2)n1 [Example 23, N-(4-(5-(2-(4,4-difluoropiperidin-1-yl)-3-fluoro-6-methylpyridin-4-yl)-1,3,4-oxadiazol-2-yl)-3-(6-azaspiro[2.5]octan-6-yl)phenyl)-2-hydroxyethane-1-sulfonamide] |
| 46 | 91 | 122 | Cc1cc(-c2nnc(-c3ccc(NS(=O)(=O)CCO)cc3N3CCC4(CC3)CC4)o2)nc(N2CCC(F)(F)CC2)c1 [Example 25, N-(4-(5-(6-(4,4-difluoropiperidin-1-yl)-4-methylpyridin-2-yl)-1,3,4-oxadiazol-2-yl)-3-(6-azaspiro[2.5]octan-6-yl)phenyl)-2-hydroxyethane-1-sulfonamide] |
| 48 | 37 | 45 | O=S(=O)(CCO)Nc1ccc(-c2nnc(-c3cc4cccnc4c(N4CCC(F)(F)CC4)n3)o2)c(N2CCC3(CC2)CC3)c1 [Example 29, N-(4-(5-(8-(4,4-difluoropiperidin-1-yl)-1,7-naphthyridin-6-yl)-1,3,4-oxadiazol-2-yl)-3-(6-azaspiro[2.5]octan-6-yl)phenyl)-2-hydroxyethanesulfonamide] |
| 255 | 55 | 61 | O=S(=O)(CCO)Nc1ccc(-c2nnc(-c3cc4cccnc4c(N4CCC(F)(F)CC4)c3F)o2)c(N2CCC3(CC2)CC3)c1 [Example 30, N-(4-(5-(8-(4,4-difluoropiperidin-1-yl)-7-fluoroquinolin-6-yl)-1,3,4-oxadiazol-2-yl)-3-(6-azaspiro[2.5]octan-6-yl)phenyl)-2-hydroxyethane-1-sulfonamide] |
| 161 | 16 | 11 | Cn1cc(-c2ccc(-c3nnc(-c4ccc(NS(=O)(=O)CCO)cc4N4CCC5(CC4)CC5)o3)nc2N2CCC(F)(F)CC2)cn1 [Example 31, N-(4-(5-(6-(4,4-difluoropiperidin-1-yl)-5-(1-methyl-1H-pyrazol-4-yl)pyridin-2-yl)-1,3,4-oxadiazol-2-yl)-3-(6-azaspiro[2.5]octan-6-yl)phenyl)-2-hydroxyethane-1-sulfonamide] |
| 113 | 187 | 251 | O=S(=O)(CCO)Nc1ccc(-c2nnc(-c3cc4cccn4c(N4CCC(F)(F)CC4)n3)o2)c(N2CCC3(CC2)CC3)c1 [Example 32] |
| 61 | 34 | 65 | O=S(=O)(CCO)Nc1ccc(-c2nnc(-c3cc4ccoc4c(N4CCC(F)(F)CC4)n3)o2)c(N2CCC3(CC2)CC3)c1 [Example 33] |
